# According to patent publication US8546428B2 (priority 2006, dated 2013):
# Test system: Mycobacteria including drug resistant strains, in particular Mycobacterium tuberculosis, M. bovis, M. avium, M. leprae and M. marinum
# Assay type: cell-based
smiles,measurement,value
"COc1nc2ccc(Br)cc2cc1[C@@H](c1ccccc1)[C@@](O)(CCN(C)C)c1cccc2ccccc12.O=C(O)/C=C/C(=O)O [Present fumarate salt, (alpha S, beta R)-6-bromo-alpha-[2-(dimethylamino)ethyl]-2-methoxy-alpha-1-naphthalenyl-beta-phenyl-3-quinolineethanol (2E)-2-butenedioate (1:1)]",activity against Mycobacteria,shows activity
